Assay results published in paper PMC10791743, “Selective CK1α degraders exert antiproliferative activity against a broad range of human cancer cell lines” (Nature Communications, 2024).
pIC50: −log10 of the molar value.

Columns and labels:
Experiment in all cases: cells
Parameters in all cases: Oncolines panel cell viability, ATPlite 1Step luminescence, duplicate 9-point dose response, IC50
HT = details: Homo sapiens, HT; 72 h viability; read-out: SJ3149
Experimental: (§1) Cell viability assays were performed as previously described. In brief, cells were seeded in a 384-well plate at an optimized density. The starting cell number was determined after 24 h incubation by adding ATPlite 1Step (Perkin Elmer, Groningen, the Netherlands) to each well and recording luminescence on an Envision multimode reader (Perkin Elmer, Waltham, MA). After the addition of a duplicate 9-point dilution series of SJ3149, cells were incubated for another 72 h, followed by cell counting using ATPlite 1Step. The dilution series ranged from 3.2 to 31,600 nM or was diluted 100-fold for the most sensitive cell lines to ideally capture the complete dose–response curve. Percentage viability was determined at each compound concentration by relating the observed signal to a vehicle-treated control, that is, medium containing 0.4% (v/v) DMSO. Compound IC50 values were calculated by fitting a 4-parameter logistic curve to the percentage viability values using IDBS XLfit5 (IDBS, Guildford, UK). The IC50 was limited to the maximum tested compound concentration when the IC50 exceeded the maximum tested concentration. […] To evaluate the compound’s effect and potential therapeutic application across a diverse range of human cancers, we profiled SJ3149 in Oncolines® panel consisting of 115 human cancer cell lines, of which 86 were solid tumor and 29 hematologic cell lines, including MOLM-13. Effect on cell viability was monitored using ATPLite™ (Perkin Elmer), which measures intracellular ATP content as an indirect readout of cell number, like CellTiter Glo.

COLO 829 = details: Homo sapiens, COLO-829; 72 h viability; read-out: SJ3149
Experimental: as §1

A-704 = details: Homo sapiens, A704; 72 h viability; read-out: SJ3149
Experimental: as §1

BxPC-3 = details: Homo sapiens, BXPC-3; 72 h viability; read-out: SJ3149
Experimental: as §1

AN3 CA = details: Homo sapiens, AN3-CA; 72 h viability; read-out: SJ3149
Experimental: as §1

HCT-15 = details: Homo sapiens, HCT-15; 72 h viability; read-out: SJ3149
Experimental: as §1

MeWo = details: Homo sapiens, MeWo; 72 h viability; read-out: SJ3149
Experimental: as §1

C-33 A = details: Homo sapiens, C-33-A; 72 h viability; read-out: SJ3149
Experimental: as §1

J82 = details: Homo sapiens, J82; 72 h viability; read-out: SJ3149
Experimental: as §1

AsPC-1 = details: Homo sapiens, ASPC1; 72 h viability; read-out: SJ3149
Experimental: as §1

ES-2 = details: Homo sapiens, ES-2; 72 h viability; read-out: SJ3149
Experimental: as §1

SHP-77 = details: Homo sapiens, SHP77; 72 h viability; read-out: SJ3149
Experimental: as §1

G-361 = details: Homo sapiens, G-361; 72 h viability; read-out: SJ3149
Experimental: as §1

MIA PaCa-2 = details: Homo sapiens, MIA PaCa-2; 72 h viability; read-out: SJ3149
Experimental: as §1

HL-60 = details: Homo sapiens, HL-60; 72 h viability; read-out: SJ3149
Experimental: as §1

SNU-5 = details: Homo sapiens, SNU-5; 72 h viability; read-out: SJ3149
Experimental: as §1

CAL 27 = details: Homo sapiens, CAL-27; 72 h viability; read-out: SJ3149
Experimental: as §1

LS411N = details: Homo sapiens, LS-411N; 72 h viability; read-out: SJ3149
Experimental: as §1

SJCRH30 = details: 72 h viability; read-out: SJ3149
Experimental: as §1

DU 145 = details: Homo sapiens, DU-145; 72 h viability; read-out: SJ3149
Experimental: as §1

Measured: pIC50

O=C1CCC(N2Cc3cc(Nc4noc5ccccc45)ccc3C2=O)C(=O)N1 (centres unmarked) [SJ3149]
< 4.50: all assays above
